# Assay results: patent publication EP4653443A1, “STEREOISOMER AND DEUTERATED DERIVATIVE OF PYRAZOLOQUINAZOLINE COMPOUND AND USE” (Phil Rivers Technology Co., Ltd, priority 2023, dated 2024)
# Key:
# [1] = tested on: pancreatic cancer cell line (PSN1); test: Proliferation inhibitory activity on cell line PSN1 (CellTiter-Glo, 72 hours); assay type: cell-based; conditions: for IC50: Homo sapiens, PSN1 cell proliferation; for Max Inhibition Percentage: PSN1 cells
# Description: • a) Adherent cells need to be digested and centrifuged, while suspension cells can be directly centrifuged; • b) Resuspend with complete culture medium and count using an automatic cell counter; • c) Plate 6,000 cells per well for PSN1, and dilute the cell suspension to the required density; • d) Add 100 µL of cells per well, and culture overnight at 37°C in a 5% CO2 incubator to stabilize and balance the cells.
# • a) Prepare the compound with DMSO as a solution of 200-fold final concentration; • b) Dilute the 200-fold compound to a 3-fold final concentration with complete culture medium; • c) Add 50 µL of the compound per well, use wells with the same volume of culture medium as controls, and continue culturing in a 37°C, 5% CO2 incubator for 72 hours.
# • a) Equilibrate the cell plate and CTG reagent to room temperature; • b) Add 30 µL of CellTiter-Glo® reagent per well; • c) Incubate at room temperature for 15 minutes; • d) Detect with a microplate reader.
# • 1) Calculate IC50 using GraphPad Prism 8; • 2) %Inh = (1-(Raw data - Meanmin) / (Meanmax - Meanmin))×100; • 3) Meanmax is the positive control well with only cells and the same volume of culture medium; • 4) Meanmin is the negative control well with only culture medium; • 5) Raw data refers to the signal values of wells with added compounds. For two replicate wells, they are denoted as Raw1 and Raw2.
# [2] = Metabolic stability in liver microsomes (human); assay type: in vitro ADME; conditions: for Residual Amount (%) 15 min / Residual Amount (%) 30 min / Residual Amount (%) 45 min / Residual Amount (%) 60 min: Human, first line of pair
# Description: (§1) For negative samples, add 80µL of PBS (100mM, pH = 7.4) solution. Vortex at 800 rpm for 10 seconds, then pre-incubate in a 37°C water bath for 10 minutes. • 4) After pre-incubation, add 2 µL of control drug or test compound to each well to initiate the reaction. The reaction is carried out in a 37°C water bath at 60 rpm. • 5) At 0.5, 15, 30, 45, and 60 minutes, take 50 µL of the reaction system from each well and add it to 200 µL of cold methanol solution containing the internal standard to terminate the reaction. • 6) Mix thoroughly and centrifuge at 4000 rpm at 4°C for 30 minutes. • 7) Take 100µL of supernatant and mix with 100µL ultrapure water for liquid-mass analysis. *Internal standards: 50nM alprazolam, 50nM labetalol and 100nM ketoprofen
# (§2) The internal standard method is adopted, and the ratio of the sample peak area to the internal standard peak area is used to calculate the residual percentage (taking the ratio of the sample peak area to the internal standard peak area at 0.5 minutes as 100%).
# [3] = Metabolic stability in liver microsomes (mouse); assay type: in vitro ADME; conditions: for Residual Amount (%) 15 min / Residual Amount (%) 30 min / Residual Amount (%) 45 min / Residual Amount (%) 60 min: Mouse, first line of pair
# Description: as §1, §2
# [4] = Permeability and transporter substrate test in Caco-2 cells (ABBA); assay type: in vitro ADME; conditions: human, pH 7.4; for Papp A→B at 2 h, 5 µM: Caco-2, A to B, read-out: Average Papp PappA-B; for Papp B→A at 2 h, 5 µM: Caco-2, B to A, read-out: Average Papp PappB-A; for efflux ratio at 2 h, 5 µM: Caco-2, Papp(B-A)/Papp(A-B), read-out: Efflux Rate (ERa)
# Description: (§3) Apparent permeability coefficient (Papp, cm/s) and efflux ratio were calculated using Microsoft Excel.
# Caco-2 cells = test: as above; assay type: in vitro ADME; conditions: Caco-2
# Description: as §3
# [5] = Thermodynamic solubility test; assay type: physicochemical; conditions: phosphate buffer, aqueous buffer, thermodynamic from solid, pH 7.4, 25°C
# Description: Weigh 7.098 g Na2HPO4 (Solution A) and dissolve in 500 mL ultrapure water via sonication; weigh 3.40 g KH2PO4 (Solution B) and dissolve in 250 mL ultrapure water via sonication. Slowly add Solution B dropwise to Solution A and adjust the pH to 7.40 ± 0.05.
# Shake at 1100 rpm, 25°C for 5 minutes; • i) Add 10 µL of the 1 mg/mL DMSO sample and 10 µL of buffer to 980 µL of methanol, then dilute 10-fold with methanol:water (1:1) as the standard sample for LC-MS/MS analysis.
# Solubility was calculated using Excel. Solubility(μM) = (Areafiltered × DFfiltered)/(Areastd × DFstd) × [std] × DFstd [formula]
# in vivo = conditions: mouse, in vivo, iv, 2 mg/kg
# Description: (§4) The objective of this study is to investigate the pharmacokinetic properties of the disclosed compounds after tail vein intravenous injection (IV) and oral administration (PO) in female CD1 mice. Plasma was sampleed at 0, 0.083, 0.25, 0.5, 1, 2, 4, 7 and 24 hours post-dosing, and the drug concentrations in plasma at different time points were detected by LC-MS/MS, and the relevant pharmacokinetic parameters were calculated using WinNonlin software.
# (§5) Experimental female CD1 mice were purchased from SPF Laboratory Animal Technology Co., Ltd., aged 6-8 weeks with body weights of 20-30 g. The female CD1 mice were housed in a controlled environment (set temperature at 20-25°C and relative humidity at 40-70%). A 12-hour light/12-hour dark cycle was maintained unless interrupted by study-related events.
# (§6) Compound solutions are prepared in an ultra-clean workbench and prepared immediately before use, and mixed thoroughly prior to use to ensure formulation homogeneity.
# (§7) Vehicle composition: 10% DMSO+90% (20%SBE-β-CD) Table 4. Doses Used in IV Administration
# (§8) Vehicle composition: 10% DMSO + 90% (20%SBE-β-CD) Table 5. Doses Used in PO Administration
# (§9) Vehicle composition: 0.5% MC + 1% Tween-20 Table 6. Doses Used in PO Administration
# (§10) Prior to the experiment, the animals were randomly grouped. The mice were fasted for 12 hours before drug administration, and free feeding was resumed 4 hours after administration.
# (§11) All blood samples were transferred into plastic microcentrifuge tubes containing anticoagulant (EDTA-K2), and then centrifuged at 4000 g for 5 minutes at 4°C. The supernatant was transferred into a microcentrifuge tube without anticoagulant, and the plasma was stored in a -75±15°C refrigerator until detection.
# (§12) The blood samples were purified by HPLC and analyzed by mass spectrometry to obtain the plasma concentration-time curve of the disclosed compound.
# (§13) The pharmacokinetic parameters were estimated by non-compartmental model method (calculated by Phoenix WinNonlin software).
# [6] = Pharmacokinetic study in mice (IV and PO, plasma LC-MS/MS); conditions: PO 5 mg/kg vs IV 2 mg/kg
# Description: as §4, §5, §6, §7, §8, §9, §10, §11, §12, §13
Structure (SMILES),IC50 [1] [nM],Max Inhibition Percentage ([1]; first column of this head),Max Inhibition Percentage ([1]; second column of this head),Residual Amount (%) 15 min [2] [%],Residual Amount (%) 30 min [2] [%],Residual Amount (%) 45 min [2] [%],Residual Amount (%) 60 min [2] [%],Residual Amount (%) 15 min [3] [%],Residual Amount (%) 30 min [3] [%],Residual Amount (%) 45 min [3] [%],Residual Amount (%) 60 min [3] [%],"Papp A→B at 2 h, 5 µM [4] [×10⁻⁶ cm/s]","Papp B→A at 2 h, 5 µM [4] [×10⁻⁶ cm/s]","efflux ratio at 2 h, 5 µM [4]",Classification Efflux Transporter Substrate (Caco-2 cells),AUC(0-t) (in vivo) [ng·h/mL],Vd (in vivo) [L/kg],clearance (in vivo) [mL/min/kg],half-life (in vivo) [min],F [6] [%],also measured
NC(=O)c1nn(CCO)c2c1CCc1cnc(Nc3cc(N4CCN5CCC[C@@H]5C4)ccc3OC(F)(F)F)nc1-2 [CPD02],67.6,80.8,6.7,54.16,32.53,22.97,13.71,56.76,39.33,30.29,26.56,7.83,23.8,3.04,Probable (ERa ≧ 2),404,3.05,81.7,81.6,38.0,half-life ([2]; Human liver microsomes): 21.4 min; microsomal CLint ([2]; Human liver microsomes): 64.8 µL/min/mg; half-life ([3]; Mouse liver microsomes): 31.5 min; microsomal CLint ([3]; Mouse liver microsomes): 44 µL/min/mg; solubility at 24 h [5]: 2.1 µg/mL
NC(=O)c1nn(CCO)c2c1CCc1cnc(Nc3cc(N4CCN5CCC[C@H]5C4)ccc3OC(F)(F)F)nc1-2 [CPD03],256,73.6,-3.1,–,–,–,–,–,–,–,–,–,–,–,–,433,4.29,79.1,226,16.2,–
"O=C(O)Cc1ccccc1Nc1c(Cl)cccc1Cl [Diclofenac, reference compound]",–,–,–,10.78,5.62,3.65,2.93,61.24,56.66,51.87,45.26,–,–,–,–,–,–,–,–,–,"microsomal CLint at 2 µM ([2]; pH 7.4, Human liver microsomes): 194 µL/min/mg; microsomal CLint ([3]; male, CD-1, pH 7.4, Mouse liver microsomes): 67.6 µL/min/mg"
C[C@H]1O[C@@H](O[C@H]2[C@@H](O)C[C@H](O[C@H]3[C@@H](O)C[C@H](O[C@H]4CC[C@@]5(C)[C@H](CC[C@@H]6[C@@H]5C[C@@H](O)[C@]5(C)[C@@H](C7=CC(=O)OC7)CC[C@]65O)C4)O[C@@H]3C)O[C@@H]2C)C[C@H](O)[C@@H]1O [Digoxin],–,–,–,–,–,–,–,–,–,–,–,0.94,26.1,27.8,Probable (ERa ≧ 2),–,–,–,–,–,–
COc1cc2nc(N3CCN(C(=O)c4ccco4)CC3)nc(N)c2cc1OC [Prazosin],–,–,–,–,–,–,–,–,–,–,–,8.97,29.6,–,–,–,–,–,–,–,–
CC(C)NCC(O)COc1cccc2ccccc12 (centres unmarked) [Propranolol],–,–,–,–,–,–,–,–,–,–,–,22.3,14.7,0.66,Unlikely or Not (ERa<2),–,–,–,–,–,–
